Test results from ChEMBL document CHEMBL1201862, “PubChem BioAssay data set” (2004).
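Dose response: 5 concentrations. Exposure: 48 h. Format: 96-well plates. Endpoint: linear interpolation; highest concentration if not reached. Here, GI50 denotes the concentration required for 50% inhibition of growth.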 Active and inactive are the calls of the source. Cut-off read from the data, not from the text of the source: active = GI50 up to about 1.1 µM and inactive = higher.

Key:
Experiment in all cases: NCI anticancer screen, dose series, 48 h
OVCAR-8 = tested on: OVCAR-8
NCI-H460 = tested on: NCI-H460
MDA-MB-435 = tested on: MDA-MB-435
786-0 = tested on: 786-0
NCI-H226 = tested on: NCI-H226
SK-MEL-2 = tested on: SK-MEL-2
OVCAR-5 = tested on: OVCAR-5
HOP-62 = tested on: HOP-62
SNB-19 = tested on: SNB-19
COLO 205 = tested on: COLO 205
CCRF-CEM = tested on: CCRF-CEM
ACHN = tested on: ACHN
MCF7 = tested on: MCF7
MDA-N = tested on: MDA-N
RPMI-8226 = tested on: RPMI-8226
SF-539 = tested on: SF-539
A549 = tested on: A549
SF-295 = tested on: SF-295
OVCAR-3 = tested on: OVCAR-3
RXF 393 = tested on: RXF 393
OVCAR-4 = tested on: OVCAR-4
HT-29 = tested on: HT-29
NCI/ADR-RES = tested on: NCI/ADR-RES
LOX IMVI = tested on: LOX IMVI
NCI-H23 = tested on: NCI-H23
HCT-15 = tested on: HCT-15
NCI-H522 = tested on: NCI-H522
PC-3 = tested on: PC-3
DU-145 = tested on: DU-145
EKVX = tested on: EKVX
SW-620 = tested on: SW-620
Hs-578T = tested on: Hs-578T
U-251 = tested on: U-251
UACC-62 = tested on: UACC-62
SK-MEL-28 = tested on: SK-MEL-28
SN12C = tested on: SN12C
SR = tested on: SR
K562 = tested on: K562
SF-268 = tested on: SF-268
SK-OV-3 = tested on: SK-OV-3
UO-31 = tested on: UO-31
HCT-116 = tested on: HCT-116
MDA-MB-231 = tested on: MDA-MB-231
M14 = tested on: M14
HCC 2998 = tested on: HCC 2998
CAKI-1 = tested on: CAKI-1
IGROV-1 = tested on: IGROV-1
A498 = tested on: A498
Malme-3M = tested on: Malme-3M
T47D = tested on: T47D
SNB-75 = tested on: SNB-75
MOLT-4 = tested on: MOLT-4
SK-MEL-5 = tested on: SK-MEL-5
HL-60 = tested on: HL-60
KM12 = tested on: KM12
UACC-257 = tested on: UACC-257
HOP-92 = tested on: HOP-92
TK-10 = tested on: TK-10

## CC(=O)CN/C(C)=N/Nc1ccc([N+](=O)[O-])cc1[N+](=O)[O-]
OVCAR-8
  GI50: > 100 µM (inactive)
NCI-H460
  GI50: > 100 µM (inactive)
MDA-MB-435
  GI50: > 100 µM (inactive)
786-0
  GI50: > 100 µM (inactive)
NCI-H226
  GI50: > 100 µM (inactive)
SK-MEL-2
  GI50: > 100 µM (inactive)
OVCAR-5
  GI50: > 100 µM (inactive)
HOP-62
  GI50: > 100 µM (inactive)
SNB-19
  GI50: > 100 µM (inactive)
COLO 205
  GI50: > 100 µM (inactive)
CCRF-CEM
  GI50: > 100 µM (inactive)
ACHN
  GI50: 94.4 µM (inactive)
MCF7
  GI50: > 100 µM (inactive)
MDA-N
  GI50: > 100 µM (inactive)
RPMI-8226
  GI50: > 100 µM (inactive)
SF-539
  GI50: > 100 µM (inactive)
A549
  GI50: > 100 µM (inactive)
SF-295
  GI50: > 100 µM (inactive)
OVCAR-3
  GI50: > 100 µM (inactive)
RXF 393
  GI50: > 100 µM (inactive)
OVCAR-4
  GI50: > 100 µM (inactive)
HT-29
  GI50: > 100 µM (inactive)
NCI/ADR-RES
  GI50: > 100 µM (inactive)
LOX IMVI
  GI50: > 100 µM (inactive)
NCI-H23
  GI50: > 100 µM (inactive)
HCT-15
  GI50: > 100 µM
NCI-H522
  GI50: > 100 µM (inactive)
PC-3
  GI50: > 100 µM (inactive)
DU-145
  GI50: > 100 µM (inactive)
EKVX
  GI50: 52.2 µM (inactive)
SW-620
  GI50: > 100 µM (inactive)
Hs-578T
  GI50: > 100 µM (inactive)
U-251
  GI50: > 100 µM (inactive)
UACC-62
  GI50: 80.9 µM (inactive)
SK-MEL-28
  GI50: > 100 µM (inactive)
SN12C
  GI50: > 100 µM (inactive)
SR
  GI50: > 100 µM (inactive)
K562
  GI50: 5.2 µM (inactive)
SF-268
  GI50: > 100 µM (inactive)
SK-OV-3
  GI50: > 100 µM (inactive)
UO-31
  GI50: > 100 µM (inactive)
HCT-116
  GI50: > 100 µM (inactive)
MDA-MB-231
  GI50: > 100 µM (inactive)
M14
  GI50: > 100 µM (inactive)
HCC 2998
  GI50: > 100 µM (inactive)
CAKI-1
  GI50: 15.3 µM (inactive)
IGROV-1
  GI50: > 100 µM (inactive)
A498
  GI50: 78.3 µM (inactive)
Malme-3M
  GI50: 70.5 µM (inactive)
T47D
  GI50: > 100 µM (inactive)
SNB-75
  GI50: > 100 µM (inactive)
MOLT-4
  GI50: > 100 µM (inactive)
SK-MEL-5
  GI50: > 100 µM (inactive)

## CCOC(=O)c1csc(NC(=O)CN2CCN(c3ccccc3)CC2)n1
OVCAR-8
  GI50: > 100 µM (inactive)
NCI-H460
  GI50: > 100 µM (inactive)
MDA-MB-435
  GI50: > 100 µM (inactive)
NCI-H226
  GI50: > 100 µM (inactive)
SK-MEL-2
  GI50: > 100 µM (inactive)
OVCAR-5
  GI50: > 100 µM (inactive)
HOP-62
  GI50: > 100 µM (inactive)
SNB-19
  GI50: > 100 µM (inactive)
COLO 205
  GI50: > 100 µM (inactive)
HL-60
  GI50: 70.6 µM (inactive)
CCRF-CEM
  GI50: > 100 µM (inactive)
ACHN
  GI50: > 100 µM (inactive)
MCF7
  GI50: > 100 µM (inactive)
MDA-N
  GI50: > 100 µM (inactive)
RPMI-8226
  GI50: > 100 µM (inactive)
A549
  GI50: > 100 µM (inactive)
SF-295
  GI50: > 100 µM (inactive)
OVCAR-3
  GI50: > 100 µM (inactive)
RXF 393
  GI50: > 100 µM (inactive)
OVCAR-4
  GI50: 99.1 µM (inactive)
HT-29
  GI50: > 100 µM (inactive)
NCI/ADR-RES
  GI50: > 100 µM (inactive)
LOX IMVI
  GI50: > 100 µM (inactive)
NCI-H23
  GI50: > 100 µM (inactive)
HCT-15
  GI50: > 100 µM
PC-3
  GI50: > 100 µM (inactive)
DU-145
  GI50: > 100 µM (inactive)
EKVX
  GI50: > 100 µM (inactive)
SW-620
  GI50: > 100 µM (inactive)
U-251
  GI50: > 100 µM (inactive)
UACC-62
  GI50: > 100 µM (inactive)
SK-MEL-28
  GI50: > 100 µM (inactive)
SR
  GI50: > 100 µM (inactive)
K562
  GI50: > 100 µM (inactive)
SK-OV-3
  GI50: > 100 µM (inactive)
UO-31
  GI50: > 100 µM (inactive)
MDA-MB-231
  GI50: > 100 µM (inactive)
M14
  GI50: > 100 µM (inactive)
KM12
  GI50: > 100 µM (inactive)
HCC 2998
  GI50: > 100 µM (inactive)
CAKI-1
  GI50: > 100 µM (inactive)
IGROV-1
  GI50: 85.9 µM (inactive)
UACC-257
  GI50: > 100 µM (inactive)
A498
  GI50: > 100 µM (inactive)
Malme-3M
  GI50: > 100 µM (inactive)
HOP-92
  GI50: > 100 µM (inactive)
T47D
  GI50: 94 µM (inactive)
SNB-75
  GI50: 38.4 µM (inactive)
TK-10
  GI50: > 100 µM (inactive)
MOLT-4
  GI50: 45.6 µM (inactive)
SK-MEL-5
  GI50: 34.8 µM (inactive)

## CC(=O)OCC1OC(n2c3c(c(-c4cccc5ccccc45)c(C#N)c2=S)CCCC3)C(OC(C)=O)C(OC(C)=O)C1OC(C)=O (stereo not drawn)
OVCAR-8
  GI50: > 100 µM (inactive)
NCI-H460
  GI50: > 100 µM (inactive)
MDA-MB-435
  GI50: > 100 µM (inactive)
786-0
  GI50: > 100 µM (inactive)
NCI-H226
  GI50: > 100 µM (inactive)
SK-MEL-2
  GI50: 20.7 µM (inactive)
OVCAR-5
  GI50: > 100 µM (inactive)
HOP-62
  GI50: > 100 µM (inactive)
SNB-19
  GI50: > 100 µM (inactive)
COLO 205
  GI50: > 100 µM (inactive)
HL-60
  GI50: > 100 µM (inactive)
CCRF-CEM
  GI50: > 100 µM (inactive)
ACHN
  GI50: > 100 µM (inactive)
MCF7
  GI50: > 100 µM (inactive)
MDA-N
  GI50: > 100 µM (inactive)
SF-539
  GI50: > 100 µM (inactive)
A549
  GI50: > 100 µM (inactive)
SF-295
  GI50: > 100 µM (inactive)
OVCAR-3
  GI50: > 100 µM (inactive)
RXF 393
  GI50: > 100 µM (inactive)
OVCAR-4
  GI50: > 100 µM (inactive)
HT-29
  GI50: > 100 µM (inactive)
NCI/ADR-RES
  GI50: > 100 µM (inactive)
LOX IMVI
  GI50: > 100 µM (inactive)
NCI-H23
  GI50: > 100 µM (inactive)
HCT-15
  GI50: > 100 µM
NCI-H522
  GI50: > 100 µM (inactive)
PC-3
  GI50: 27.7 µM (inactive)
DU-145
  GI50: > 100 µM (inactive)
EKVX
  GI50: 25.8 µM (inactive)
SW-620
  GI50: > 100 µM (inactive)
U-251
  GI50: > 100 µM (inactive)
UACC-62
  GI50: > 100 µM (inactive)
SK-MEL-28
  GI50: > 100 µM (inactive)
SN12C
  GI50: > 100 µM (inactive)
SR
  GI50: > 100 µM (inactive)
K562
  GI50: > 100 µM (inactive)
SF-268
  GI50: > 100 µM (inactive)
SK-OV-3
  GI50: > 100 µM (inactive)
UO-31
  GI50: 31.3 µM (inactive)
HCT-116
  GI50: > 100 µM (inactive)
MDA-MB-231
  GI50: > 100 µM (inactive)
M14
  GI50: 66.7 µM (inactive)
KM12
  GI50: > 100 µM (inactive)
HCC 2998
  GI50: > 100 µM (inactive)
IGROV-1
  GI50: > 100 µM (inactive)
UACC-257
  GI50: > 100 µM (inactive)
A498
  GI50: > 100 µM (inactive)
Malme-3M
  GI50: > 100 µM (inactive)
HOP-92
  GI50: 0.112 µM (active)
T47D
  GI50: > 100 µM (inactive)
TK-10
  GI50: > 100 µM (inactive)
MOLT-4
  GI50: > 100 µM (inactive)
SK-MEL-5
  GI50: > 100 µM (inactive)
